This note sets out measurements from EP0687468A2, “Pharmaceutical composition for suppressing infiltration of eosinophils” (Toyo Boseki Kabushiki Kaisha, priority 1994, dated 1995).

Assay [1] deals with intraperitoneal infiltration of eosinophils. Description: Intraperitoneal infiltration of eosinophils in rat (Ascaris extract induced). The format is in vivo. Conditions: 3 mg/kg orally once a day for 9 days; Asc-sensitized male Wistar rats; eosinophils counted 48 hours after antigen induction. The protocol:
Ascaris extract (Asc, protein amount 8 mg) was intraperitoneally administered to male Wistar rats to sensitize them. Seven days later, 4 mg protein amount of Asc was intraperitoneally administered to induce intraperitoneal infiltration of eosinophils. Forty-eight hours after the antigen induction, abdominal cavity was washed, and the infiltrated eosinophils were counted. The test compound (3 mg/kg) was orally administered once a day for 9 days from the day of antigen sensitization to one day before recovery of the infiltrated intraperitoneal cells.

Assay [2] concerns adhesion of eosinophils to vascular endothelial cells. The assay can be described thus: Inhibition of adhesion of eosinophils to TNF-treated HUVEC. The format is cell-based. The following applies: test compound concentration at TNF treatment and adhesion reaction; HUVEC treated with 100 U/ml TNF for 6 hours; adhesion reaction 20 minutes; human peripheral blood eosinophils. Here is the method:
Human umbilical vein-derived endothelial cells (HUVEC) were placed in a single layer in a 96 well plate and treated with 100 U/mi tumor necrosis factor (TNF) for 6 hours. The eosinophils obtained from peripheral blood of healthy human were fluorescence-labeled and layered on the TNF-treated HUVEC. After adhesion reaction for 20 minutes, unadhered eosinophils were removed by washing and fluorescent intensity of each well of the plate was measured to determine the eosinophils adhered to the HUVEC. The test compound was added so that the concentration at TNF treatment and adhesion reaction was 10-^SM.

The subject of assay [3] is infiltration of eosinophils in the airway. Description: Infiltration of eosinophils into bronchovesicles in rats (ovalbumin induced). The format is in vivo. The following applies: 10 mg/kg orally 5 minutes before and 5 hours after antigen induction; OA-sensitized male BN rats; bronchial wash 24 hours later. Here is the method:
An ovalbumin (OA) antigen (10 mg/kg) was intramuscularly administered to male BN rats, and 5 x 10^10 nonvial Bordetella pertussis cells were intraperitoneally administered to sensitize them. Fourteen days later, the rats were exposed to 2% OA to induce infiltration of eosinophils in the airway. Twenty-four hours later, bronchial tubes were washed and infiltrated cells were recovered to count the infiltrated eosinophils. The test compound (10 mg/kg) was orally administered 5 minutes before and 5 hours after the induction with antigen.

For the compound `CC(=O)OCC(=O)Nc1cc(C#N)cc(N)c1Cl` [3-(acetoxyacetylamino)-5-amino-4-chlorobenzonitrile], the “Suppression of infiltration of eosinophils (%)” value in assay [1] came to 55%; in assay [3], 53%. In addition, the “Suppression of adhesion of eosinophils (%)” value in assay [2] is 70%.
The like results for `N#Cc1cc(N)c(Cl)c(NC(=O)CO)c1` [3-amino-4-chloro-5-(hydroxyacetylamino)benzonitrile] were, in that order, 54%, 48% and 74%.
The like results for `COCC(=O)Nc1cc(C#N)cc(N)c1Cl` [3-amino-4-chloro-5-(methoxyacetylamino)benzonitrile] were, in that order, 42%, 56% and 62%.
